# Source: US6281222A (Inotek Corporation, priority 2000, dated 2001)
# Entries after “also recorded” stand apart in the source; their conditions may differ.
# Experiments:
# [1] = Preliminary toxicity study, enteral administration; assay type: in vivo, mice; conditions: enteral gavage up to 1000 mg/kg (300, 500, 1000 mg/kg), 24 h, n=8 per group
# Protocol: Preliminary toxicity studies were performed with AHPP to estimate the expected therapeutic ratio of the compound.
# [2] = tested on: liver tissues (centrilobular injury); experiment: Histological injury score in the liver; assay type: in vivo, rats
# Protocol: Scoring was performed by two independent investigators who were blinded to the treatment regimen. The following grading system was used: 0--normal liver, no signs of injury; 1--rare areas of centrilobular injury; 2--moderate injury involving many centrilobular areas; 3--extensive centrilobular necrosis; 4--massive hepatic injury involving all centrilobular areas and beyond.
# [3] = tested on: acetaminophen-induced liver injury; experiment: Minimally effective AHPP dose: reduction in serum ALT; assay type: in vivo
# [4] = tested on: acetaminophen-intoxicated mice; experiment: Survival after severe acetaminophen intoxication, fasted 36 hours (FIG. 3); assay type: in vivo
# [5] = tested on: acetaminophen-induced increases in ALT plasma levels; experiment: Serum/plasma ALT levels with different frequencies and starting points of AHPP or NAC treatment (FIG. 2); assay type: in vivo, rats
# From the text: The effectiveness of AHPP when given at various frequencies and starting points of administration was also examined. […] Serum ALT levels in rats were then examined
# The bars from the left to the right represent the following groups: […]
# [6] = tested on: acetaminophen-induced mortality; experiment: Dose response survival study; assay type: in vivo; conditions: for protective effect / survival: 24 hours; for survival rate: vehicle 25%; for survival: vehicle 0%
# Protocol: The minimally effective dose of AHPP was examined. Criteria for an effective dose included ability to suppress liver injury and protect against acetaminophen-induced mortality. […] Although the effect was only partial, ALT levels were reduced by 56±16% (n=8; p<0.05).
# In order to validate the significance of the above mentioned reductions in serum transaminases, a dose response survival study was also performed. […] Survival rate was 25% in the vehicle treated group, and improved to 87% with 3 mg/kg and 10 mg/kg q8h doses. […] For the survival studies, n=8-10 animals per group. […] The effective dose range lays between 10 and 50 mg/kg of AHPP q8h per enteral gavage.
# [7] = tested on: acetaminophen-induced liver injury; experiment: Plasma ALT and AST release after acetaminophen, with simultaneous AHPP treatment (FIGS. 1A and 1B); assay type: in vivo, rats; conditions: AHPP 50 mg/kg q8h per gavage, simultaneous with acetaminophen 350 mg/kg i.p.
# Protocol: The effect of AHPP on the release of ALT and AST in plasma was examined. […] The effect of AHPP is measured by the release of AST and ALT in rats.
# [8] = Survival after severe acetaminophen intoxication, fasted 36 hours (FIG. 3); assay type: in vivo, mice; conditions: mouse, in vivo, ip; 350 mg/kg i.p., fasted 36 hours, by 8 hours
# [9] = 50 mg/kg enterally, 4 h post-acetaminophen
compound,measurement,setting,value
"Nc1nc(O)nc2[nH]ncc12 [AHPP, 4-Amino-6-hydroxypyrazolo[3,4-d]pyrimidine]",mortality or behavioral or histological alterations,[1],did not result in mortality or behavioral or histological alterations
same,median histological injury score,"[2]; AHPP+Acetaminophen, scale 0 (normal liver) to 4 (massive hepatic injury), p<0.05",2.1
same,histological injury in the liver,"[2]; response to AHPP treatment, in words",significant attenuation of the histological injury
same,protective effect,[3]; 3 mg/kg q8h per enteral gavage,significant protection
same,reduction in ALT levels,"[3]; 3 mg/kg q8h per enteral gavage, n=8, p<0.05",56±16%
same,efficacy relative to 50 mg/kg dose,[3]; 10 mg/kg q8h per enteral gavage,equivalent in efficacy to the 50 mg/kg dose
same,reduction in serum ALT concentration,"[3]; 10 mg/kg q8h per enteral gavage, n=7, p<0.01",89%
same,protection / survival,"[4]; AHPP 30 mg/kg q8h gavage, simultaneous with acetaminophen 350 mg/kg i.p.",markedly protective; also recorded: dramatically prolonged survival
same,"protective effect, 8 h+16 h",[5]; 50 mg/kg enteral gavage at 8 h and 16 h post-acetaminophen,significant protective effects
same,"effect on ALT levels, 4 h post-treatment","[5]; 50 mg/kg enterally, 4 h post-acetaminophen, no supplemental doses",reduced
same,ALT levels vs acetaminophen alone,"[5]; concurrent with, or subsequent to acetaminophen",lowered ALT levels
same,enteral uptake,"[5]; inferred from efficacy via gavage, 24 h protocol",sufficient enteral uptake
same,effect of timing and frequency of administration,"[5]; start close in time to acetaminophen, followed by additional treatments at 8 h interval",most effective
same,"hepatoprotection, conclusion",[5]; summary of data,advantageously compares to NAC as a hepatoprotective agent; also recorded: effective via an enteral delivery route; also recorded: effective both as a co-treatment and in delayed post-treatment regimens
same,protective effect,[6]; 3 mg/kg q8h,lost its protective effect
same,survival rate,"[6]; 3 mg/kg q8h enteral gavage, 8 hours",87%
same,survival,[6]; 3 mg/kg q8h enteral gavage,0%
same,protective effect,[6]; 10 mg/kg q8h,maintained its protective effect
same,survival rate,"[6]; 10 mg/kg q8h enteral gavage, 8 hours",87%
same,survival,[6]; 10 mg/kg q8h enteral gavage,63%
same,protection against mortality,"[6]; 3 and 10 mg/kg q8h enteral gavage, 8 hours",significantly protected against mortality
same,"degree of liver injury, as assessed by release of ALT and AST",[7],significantly reduced the degree of liver injury
"CC(=O)N[C@@H](CS)C(=O)O [N-acetyl-cysteine, reference compound]","protective effect, co-treatment (0 h)",[5]; 50 mg/kg enterally at time of acetaminophen injection,significantly protective
same,"degree of liver injury, 4 h post-treatment",[5]; [9],exacerbated the degree of liver injury
same,"protective effect, 4 h post-treatment",[5]; [9],lost its protective effect
"CC(=O)Nc1ccc(O)cc1 [acetaminophen, reference compound]",mortality at 8 h,[8],75%
same,onset of lethality,"[4]; 350 mg/kg i.p., fasted 36 hours",2 h
